Patent publication US20220339143A1, “TAK-925 FOR USE IN TREATING NARCOLEPSY” (Takeda Pharmaceutical Company Limited, priority 2019, published 2022)
Entries after “also recorded” stand apart in the source; their conditions may differ. Like-named read-outs stand apart in the source and are kept apart here.

Test: Single dose PK in healthy subjects (Cohorts 1, 2, S1 and S2), plasma
Assay type: in vivo, human
Experimental: This study investigates (i) the safety and tolerability of Compound A (methyl (2R,3S)-3-((methylsulfonyl)amino)-2-(((cis-4-phenylcyclohexyl)oxy)methyl)piperidine-1-carboxylate) when a single dose given as a 9 hour continuous IV infusion is administered to healthy adults, healthy elderly subjects and patients with narcolepsy type 1 (NT1); (ii) the pharmacokinetics of Compound A when a single dose given as a 9 hour continuous IV infusion is administered to healthy adults, healthy elderly subjects and patients with narcolepsy type 1; and (iii) the pharmacodynamics (PD) effects of Compound A, primarily by evaluation of the sleep latency on MWT when a single dose given as a 9 hour continuous IV infusion is administered to patients with narcolepsy type 1.
Pharmacokinetics: Concentrations of Compound A in plasma, and CSF, and pharmacokinetics parameters.
On average, the time to reach the plateau appeared to be approximately 3 to 4 hours after the start of infusion. […] After switching off the IV infusion, Compound A plasma concentrations declined rapidly and in a biphasic manner with a mean terminal disposition phase t1/2z ranging approximately from 3.4 to 5.1 hours across all doses. […] Table 5 provides a summary of plasma concentrations of Compound A after a single IV infusion in healthy subjects. Table 6 provides a summary of pharmacokinetic parameters of Compound A after a single IV infusion in healthy subjects.

[1] = 56 mg, 2 hr After End of Infusion
[2] = 112 mg single IV infusion, healthy subjects
[3] = 112 mg, 0.17 hr After End of Infusion
[4] = 134.4 mg single IV infusion, healthy subjects
[5] = 134.4 mg, 0.17 hr After End of Infusion
[6] = 180 mg single IV infusion, healthy subjects
[7] = 240 mg single IV infusion, healthy subjects
[8] = human, plasma, intravenous, 7 mg, read-out: Plasma concentration, Mean
[9] = human, plasma, intravenous, 7 mg, read-out: Plasma concentration, Median
[10] = human, plasma, intravenous, 7 mg, read-out: Plasma concentration, Minimum
[11] = human, plasma, intravenous, 7 mg, read-out: Plasma concentration, Q1

COC(=O)N1CCC[C@H](NS(C)(=O)=O)[C@@H]1CO[C@H]1CC[C@@H](c2ccccc2)CC1 [Compound A, methyl (2R,3S)-3-((methylsulfonyl)amino)-2-(((cis-4-phenylcyclohexyl)oxy)methyl)piperidine-1-carboxylate]
Plasma concentration, Mean [1]: 21.70 ng/mL
Plasma concentration, Minimum [1]: 15.4 ng/mL
Plasma concentration, Q1 [1]: 15.60 ng/mL
AUCinf D Mean [2]: 18.87 ng·h/mL/mg
AUCinf D Median [2]: 19.25 ng·h/mL/mg
Cmax D Mean [2]: 2.130 ng/mL/mg
Cmax D Median [2]: 2.230 ng/mL/mg
t½z Mean [2]: 3.788 h
t½z Median [2]: 3.370 h
Plasma concentration, Maximum [3]: 138 ng/mL
Plasma concentration, Mean [3]: 126.2 ng/mL
Plasma concentration, Median [3]: 133.0 ng/mL
Plasma concentration, Minimum [3]: 106 ng/mL
Plasma concentration, Q1 [3]: 110.0 ng/mL
Plasma concentration, Q3 [3]: 137.0 ng/mL
Plasma concentration, Maximum (112 mg, Predose): 0.00 ng/mL
Plasma concentration, Median (112 mg, Predose): 0.000 ng/mL
Plasma concentration, Minimum (112 mg, Predose): 0.00 ng/mL
Plasma concentration, Q1 (112 mg, Predose): 0.000 ng/mL
Plasma concentration, Q3 (112 mg, Predose): 0.000 ng/mL
AUCinf D Mean [4]: 20.23 ng·h/mL/mg
AUCinf D Median [4]: 19.95 ng·h/mL/mg
Cmax D Mean [4]: 2.293 ng/mL/mg
Cmax D Median [4]: 2.340 ng/mL/mg
t½z Mean [4]: 3.943 h
t½z Median [4]: 3.760 h
Plasma concentration, Maximum [5]: 255 ng/mL
Plasma concentration, Mean [5]: 181.7 ng/mL
Plasma concentration, Median [5]: 167.5 ng/mL
Plasma concentration, Minimum [5]: 145 ng/mL
Plasma concentration, Q1 [5]: 148.0 ng/mL
Plasma concentration, Q3 [5]: 207.0 ng/mL
Plasma concentration, Maximum (134.4 mg, Predose): 0.00 ng/mL
Plasma concentration, Mean (134.4 mg, Predose): 0.000 ng/mL
Plasma concentration, Median (134.4 mg, Predose): 0.000 ng/mL
Plasma concentration, Minimum (134.4 mg, Predose): 0.00 ng/mL
Plasma concentration, Q1 (134.4 mg, Predose): 0.000 ng/mL
Plasma concentration, Q3 (134.4 mg, Predose): 0.000 ng/mL
AUCinf D Mean [6]: 16.73 ng·h/mL/mg
AUCinf D Median [6]: 16.90 ng·h/mL/mg
Cmax D Mean [6]: 1.918 ng/mL/mg
Cmax D Median [6]: 1.990 ng/mL/mg
t½z Mean [6]: 3.363 h
t½z Median [6]: 3.225 h
AUCinf D Mean [7]: 19.28 ng·h/mL/mg
AUCinf D Median [7]: 18.45 ng·h/mL/mg
Cmax D Mean [7]: 2.133 ng/mL/mg
Cmax D Median [7]: 2.010 ng/mL/mg
Vss Median [7]: 99.25 L
t½z Mean [7]: 4.033 h
t½z Median [7]: 4.230 h
dose proportionality of mean plasma systemic exposure (doses of 7 to 240 mg, healthy adults): increased approximately dose proportionally; also recorded: exhibits linear pharmacokinetics
concentration at 0.33 h after end of infusion [8]: 7.34 ng/mL
concentration at 0.33 h after end of infusion [9]: 7.16 ng/mL
concentration at 0.33 h after end of infusion [10]: 6.28 ng/mL
concentration at 0.33 h after end of infusion [11]: 7.12 ng/mL
concentration at 0.33 h after end of infusion (human, plasma, intravenous, 7 mg, read-out: Plasma concentration, Q3): 7.26 ng/mL
concentration at 0.5 h after end of infusion [8]: 6.73 ng/mL
concentration at 0.5 h after end of infusion [9]: 6.46 ng/mL
concentration at 0.5 h after end of infusion [10]: 6.1 ng/mL
concentration at 0.5 h after end of infusion [11]: 6.26 ng/mL
concentration at 0.5 h (human, plasma, intravenous, 7 mg, 0.5 hr, read-out: Plasma concentration, Maximum): 10.5 ng/mL
concentration at 0.5 h (human, plasma, intravenous, 7 mg, 0.5 hr, read-out: Plasma concentration, Mean): 9.15 ng/mL
concentration at 0.5 h (human, plasma, intravenous, 7 mg, 0.5 hr, read-out: Plasma concentration, Median): 9.54 ng/mL
concentration at 0.5 h (human, plasma, intravenous, 7 mg, 0.5 hr, read-out: Plasma concentration, Minimum): 6.99 ng/mL
concentration at 0.5 hr (human, plasma, intravenous, 7 mg, 0.5 hr, read-out: Plasma concentration, Q1): 7.83 ng/mL
concentration at 0.5 h (human, plasma, intravenous, 7 mg, 0.5 hr, read-out: Plasma concentration, Q3): 10.5 ng/mL
concentration at 0.75 h after end of infusion [8]: 5.55 ng/mL
concentration at 0.75 h after end of infusion [9]: 5.38 ng/mL
concentration at 0.75 h after end of infusion [10]: 5.27 ng/mL
concentration at 0.75 h after end of infusion [11]: 5.35 ng/mL
concentration at 1 h after end of infusion [8]: 4.91 ng/mL
concentration at 1 h after end of infusion [9]: 4.83 ng/mL
concentration at 1 h after end of infusion [10]: 4.34 ng/mL
concentration at 1 h after end of infusion [11]: 4.82 ng/mL
concentration at 1 h (human, plasma, intravenous, 7 mg, 1 hr, read-out: Plasma concentration, Maximum): 15.1 ng/mL
concentration at 1 h (human, plasma, intravenous, 7 mg, 1 hr, read-out: Plasma concentration, Mean): 11.7 ng/mL
concentration at 1 h (human, plasma, intravenous, 7 mg, 1 hr, read-out: Plasma concentration, Median): 11.9 ng/mL
concentration at 1 h (human, plasma, intravenous, 7 mg, 1 hr, read-out: Plasma concentration, Minimum): 8.68 ng/mL
concentration at 1 hr (human, plasma, intravenous, 7 mg, 1 hr, read-out: Plasma concentration, Q1): 9.45 ng/mL
concentration at 1 h (human, plasma, intravenous, 7 mg, 1 hr, read-out: Plasma concentration, Q3): 13.2 ng/mL
concentration at 1.5 h after end of infusion [8]: 4.25 ng/mL
concentration at 1.5 h after end of infusion [9]: 4.5 ng/mL
concentration at 1.5 h after end of infusion [10]: 3.27 ng/mL
concentration at 1.5 h after end of infusion [11]: 4.15 ng/mL
concentration at 1.5 h (human, plasma, intravenous, 7 mg, 1.5 hr, read-out: Plasma concentration, Maximum): 17.6 ng/mL
concentration at 1.5 h (human, plasma, intravenous, 7 mg, 1.5 hr, read-out: Plasma concentration, Mean): 13.1 ng/mL
concentration at 1.5 h (human, plasma, intravenous, 7 mg, 1.5 hr, read-out: Plasma concentration, Median): 13 ng/mL
concentration at 1.5 h (human, plasma, intravenous, 7 mg, 1.5 hr, read-out: Plasma concentration, Minimum): 8.96 ng/mL
concentration at 1.5 hr (human, plasma, intravenous, 7 mg, 1.5 hr, read-out: Plasma concentration, Q1): 12 ng/mL
concentration at 1.5 h (human, plasma, intravenous, 7 mg, 1.5 hr, read-out: Plasma concentration, Q3): 14 ng/mL
concentration at 2 h (human, plasma, intravenous, 7 mg, 2 hr, read-out: Plasma concentration, Maximum): 18.5 ng/mL
concentration at 2 h (human, plasma, intravenous, 7 mg, 2 hr, read-out: Plasma concentration, Mean): 14.8 ng/mL
concentration at 2 h (human, plasma, intravenous, 7 mg, 2 hr, read-out: Plasma concentration, Median): 14.9 ng/mL
concentration at 2 h (human, plasma, intravenous, 7 mg, 2 hr, read-out: Plasma concentration, Minimum): 10.9 ng/mL
concentration at 2 hr (human, plasma, intravenous, 7 mg, 2 hr, read-out: Plasma concentration, Q1): 12.8 ng/mL
concentration at 2 h (human, plasma, intravenous, 7 mg, 2 hr, read-out: Plasma concentration, Q3): 16.5 ng/mL
concentration at 3 h (human, plasma, intravenous, 7 mg, read-out: Plasma concentration, Maximum): 20.2 ng/mL
concentration at 3 h [8]: 16.5 ng/mL
concentration at 3 h [9]: 15.8 ng/mL
concentration at 3 h [10]: 13.2 ng/mL
